For test [1], the system named is Aβ 40 in rat brain. Nature of the test: In vivo inhibition of beta-secretase: Aβ40 reduction in rat brain. As to conditions: 10 mpk, after 4 h. Put shortly: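 Rats were dosed by oral gavage at up to 100 mg/kg in 2% HPMC, 1% Tween80, pH 2.2, with vehicle-only controls. Supernatant Aβ40 was measured by ECL sandwich ELISA with biotinylated-4G8 capture and C-terminal Fab40 detection.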

Test [2] has as its target Recombinant Cat D (Homo sapiens (Human), UniProt P07339). Nature of the test: In vitro enzymatic Cathepsin D (Cat D) FRET assay. The test is classed as biochemical. As to conditions: read-out: IC50 IP (μM) CatD. Put shortly:
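Recombinant Cat D expressed in CHO cells, assayed in 0.05 M citrate pH 3.5 with 5 mM CHAPS and 10% DMSO final. Reaction started with 20 nM FRET peptide substrate, incubated one hour, then stopped by Tris buffer to neutral pH; fluorescence read at ex 500/em 580 nm.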

The test system of test [3] is Aβ40 in conditioned medium of cells stably expressing Amyloid Precursor Protein (APP). Nature of the test: In vitro BACE-1 cell-based assay (Aβ40 sandwich ELISA). The note with it: read-out: IC50 IP (μM) BACE1 cell. An outline of the steps:
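Aβ40 in supernatants measured by time-resolved fluorescence sandwich ELISA, with pAb40 as capture and biotin-6E10 as detector antibody, each incubated at 4 °C.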

Test [4] addresses human recombinant BACE2 (Homo sapiens (Human), UniProt Q9Y5Z0). Nature of the test: In vitro enzymatic BACE2 FRET assay. Type of test: biochemical. As to conditions: read-out: IC50 IP (μM) BACE2 enzyme. An outline of the steps:
(§1)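 Reactions were initiated by adding 50 nM of a peptide carrying fluorophore and quencher on opposite sides of the cleavage site and ran for one hour. Tris buffer then brought the pH to neutrality, ending the reaction, and fluorescence was measured (488 nm excitation, 590 nm emission).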

For test [5], the target named is human recombinant BACE1 (Homo sapiens (Human), UniProt P56817). Nature of the test: In vitro enzymatic BACE1 FRET assay. Type of test: biochemical. The note with it: read-out: IC50 IP (μM) BACE1 enzyme. An outline of the steps: as §1
For test [6], the system named is Aβ 40 in rat CSF. Nature of the test: In vivo inhibition of beta-secretase: Aβ40 reduction in rat CSF. The note with it: 10 mpk, after 4 h. Put shortly: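 Male Sprague Dawley rats (200 g) dosed orally in 2% HPMC, 1% Tween80, pH 2.2, at 3, 10 or 30 mg/kg; CSF and brain taken 4 h later. Brain homogenate centrifuged at 355,000 g; Aβ40 measured by ECL sandwich ELISA (4G8 capture, Abeta40 C-terminal Fab detection), as % reduction versus vehicle controls.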

As usually defined, the IC50 is the concentration that inhibits the measured activity by half.

SMILES strings stand for the structures.

human recombinant BACE2, sequence (Q9Y5Z0 63-518): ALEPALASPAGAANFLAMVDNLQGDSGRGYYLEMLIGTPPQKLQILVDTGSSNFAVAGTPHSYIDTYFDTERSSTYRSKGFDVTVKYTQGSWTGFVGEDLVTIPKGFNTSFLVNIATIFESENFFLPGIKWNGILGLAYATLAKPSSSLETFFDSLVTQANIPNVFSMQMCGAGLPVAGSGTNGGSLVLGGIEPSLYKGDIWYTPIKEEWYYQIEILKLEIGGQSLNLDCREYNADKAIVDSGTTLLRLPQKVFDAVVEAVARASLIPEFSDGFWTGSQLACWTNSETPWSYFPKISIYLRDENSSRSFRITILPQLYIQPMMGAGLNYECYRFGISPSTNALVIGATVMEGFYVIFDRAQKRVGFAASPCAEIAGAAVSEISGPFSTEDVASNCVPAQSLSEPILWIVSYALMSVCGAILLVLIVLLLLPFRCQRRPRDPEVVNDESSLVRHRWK
human recombinant BACE1, sequence (P56817 46-501): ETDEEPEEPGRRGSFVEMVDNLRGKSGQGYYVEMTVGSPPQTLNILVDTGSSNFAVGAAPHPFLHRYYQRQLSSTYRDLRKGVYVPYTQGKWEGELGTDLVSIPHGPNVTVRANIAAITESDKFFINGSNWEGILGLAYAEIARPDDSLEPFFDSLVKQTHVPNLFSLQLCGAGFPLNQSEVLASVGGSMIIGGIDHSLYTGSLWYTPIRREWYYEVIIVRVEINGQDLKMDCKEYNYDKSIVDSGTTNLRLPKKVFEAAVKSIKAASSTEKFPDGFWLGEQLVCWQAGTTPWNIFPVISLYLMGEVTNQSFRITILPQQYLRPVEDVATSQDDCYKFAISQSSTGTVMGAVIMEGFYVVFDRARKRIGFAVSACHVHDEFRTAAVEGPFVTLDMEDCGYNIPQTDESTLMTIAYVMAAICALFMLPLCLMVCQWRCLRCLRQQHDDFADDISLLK
Recombinant Cat D, sequence (P07339 65-412): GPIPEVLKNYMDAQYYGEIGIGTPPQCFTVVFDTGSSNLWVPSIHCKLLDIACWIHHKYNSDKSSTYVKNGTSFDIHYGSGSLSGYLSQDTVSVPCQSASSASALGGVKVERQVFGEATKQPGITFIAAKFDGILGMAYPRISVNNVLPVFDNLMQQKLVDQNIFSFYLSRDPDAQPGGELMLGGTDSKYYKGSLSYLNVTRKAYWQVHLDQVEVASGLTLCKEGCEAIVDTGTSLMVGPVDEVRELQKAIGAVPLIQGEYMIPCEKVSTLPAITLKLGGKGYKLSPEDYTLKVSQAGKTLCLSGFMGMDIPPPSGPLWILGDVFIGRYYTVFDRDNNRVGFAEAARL

`C[C@]1(c2cc(NC(=O)c3ccc(OCC(F)(F)F)cn3)ccc2F)N=C(N)S[C@@]2(CF)C[C@H]21` [Example 697, N-(3-((1S,5S,6S)-3-amino-1-(fluoromethyl)-5-methyl-2-thia-4-azabicyclo[4.1.0]hept-3-en-5-yl)-4-fluorophenyl)-5-(2,2,2-trifluoroethoxy)-2-pyridinecarboxamide]: the “% Aβ 40 reduction in rat brain at 10 mpk” value in test [1] worked out at 13%. For the same molecule, the IC50 in test [2] is greater than 400 µM; in test [3] it was 0.0315 µM; in test [4], 0.338 µM; in test [5], 0.00629 µM. The “% Aβ 40 reduction in rat CSF at 10 mpk” value in test [6] was 35%.
With `COC[C@]12C[C@H]1[C@@](C)(c1cc(NC(=O)c3ccc(OCC(F)(F)F)cn3)ccc1F)N=C(N)S2` [Example 698, N-(3-((1S,5S,6S)-3-amino-1-(methoxymethyl)-5-methyl-2-thia-4-azabicyclo[4.1.0]hept-3-en-5-yl)-4-fluorophenyl)-5-(2,2,2-trifluoroethoxy)-2-pyridinecarboxamide], the “% Aβ 40 reduction in rat brain at 10 mpk” value in test [1] is listed as −7%. Further, the IC50 in test [2] was greater than 400 µM; in test [3] it was 0.0116 µM; in test [4], 0.316 µM; in test [5], 0.0086 µM. For the same molecule, the “% Aβ 40 reduction in rat CSF at 10 mpk” value in test [6] is reported as 15%.
For `C[C@]1(c2cc(Nc3nccc4nc(OCc5ncco5)cnc34)ccc2F)N=C(N)S[C@]2(CO)[C@H]1C2(F)F` [Example 705, ((1S,5S,6R)-3-amino-7,7-difluoro-5-(2-fluoro-5-((2-(1,3-oxazol-2-ylmethoxy)pyrido[3,4-b]pyrazin-5-yl)amino)phenyl)-5-methyl-2-thia-4-azabicyclo[4.1.0]hept-3-en-1-yl)methanol], in test [1], the “% Aβ 40 reduction in rat brain at 10 mpk” value was determined as 1%. Besides, the IC50 worked out at 183 µM in test [2], 0.0035 µM in test [3], 0.0184 µM in test [4] and 0.00186 µM in test [5]. Also, the “% Aβ 40 reduction in rat CSF at 10 mpk” value in test [6] worked out at 28%.
For the molecule `C#CCOc1cnc2c(Nc3ccc(F)c([C@@]4(C)N=C(N)S[C@]5(CO)[C@H]4C5(F)F)c3)nccc2n1` [Example 707, ((1S,5S,6R)-3-amino-7,7-difluoro-5-(2-fluoro-5-((2-(2-propyn-1-yloxy)pyrido[3,4-b]pyrazin-5-yl)amino)phenyl)-5-methyl-2-thia-4-azabicyclo[4.1.0]hept-3-en-1-yl)methanol], in test [1], the “% Aβ 40 reduction in rat brain at 10 mpk” value turned out to be 25%. Besides, the IC50 in test [2] is 550 µM; in test [3], 0.00422 µM; in test [4] it was 0.0185 µM; in test [5], 0.000636 µM. Further, the “% Aβ 40 reduction in rat CSF at 10 mpk” value in test [6] amounted to 27%.
Take `C[C@]1(c2cc(NC(=O)c3cnc(OCC(F)(F)C(F)F)cn3)ccc2F)N=C(N)S[C@]2(CO)[C@H]1C2(F)F` [Example 708, N-(3-((1S,5S,6R)-3-amino-7,7-difluoro-1-(hydroxymethyl)-5-methyl-2-thia-4-azabicyclo[4.1.0]hept-3-en-5-yl)-4-fluorophenyl)-5-(2,2,3,3-tetrafluoropropoxy)-2-pyrazinecarboxamide]: the “% Aβ 40 reduction in rat brain at 10 mpk” value in test [1] is reported as −4%. Moreover, the IC50 in test [2] came out at 438 µM; in test [3], 0.0215 µM; in test [4] it was 0.107 µM; in test [5], 0.000969 µM. In addition, the “% Aβ 40 reduction in rat CSF at 10 mpk” value in test [6] was determined as 13%.
Take `C#CCOc1cnc2c(Nc3ccc(F)c([C@@]4(C)N=C(N)S[C@]5(C(C)(C)O)[C@H]4C5(F)F)c3)nccc2n1` [Example 712, 2-((1S,5S,6R)-3-amino-7,7-difluoro-5-(2-fluoro-5-((2-(2-propyn-1-yloxy)pyrido[3,4-b]pyrazin-5-yl)amino)phenyl)-5-methyl-2-thia-4-azabicyclo[4.1.0]hept-3-en-1-yl)-2-propanol]: in test [1], the “% Aβ 40 reduction in rat brain at 10 mpk” value amounted to 32%. Also, the IC50 in test [2] amounted to 476 µM; in test [3], 0.00904 µM; in test [4], 0.0516 µM; in test [5] it was 0.000782 µM. In test [6], the “% Aβ 40 reduction in rat CSF at 10 mpk” value is given as 52%.
`COC[C@]12C[C@H]1[C@@](C)(c1cc(Nc3nccc4cc(OCc5ncco5)cnc34)cc(F)c1F)N=C(N)S2` [Example 727, N-(3-((1S,5S,6S)-3-amino-1-(methoxymethyl)-5-methyl-2-thia-4-azabicyclo[4.1.0]hept-3-en-5-yl)-4,5-difluorophenyl)-3-(1,3-oxazol-2-ylmethoxy)-1,7-naphthyridin-8-amine]: the “% Aβ 40 reduction in rat brain at 10 mpk” value in test [1] came out at 18%. The IC50 in test [2] is 779 µM; in test [3], 0.00962 µM; in test [4], 0.359 µM; in test [5], 0.00798 µM. Also, in test [6], the “% Aβ 40 reduction in rat CSF at 10 mpk” value amounted to 38%.
`COC[C@]12C[C@H]1[C@@](C)(c1cc(Nc3nccc4cc(OCc5cocn5)cnc34)cc(F)c1F)N=C(N)S2` [Example 728, N-(3-((1S,5S,6S)-3-amino-1-(methoxymethyl)-5-methyl-2-thia-4-azabicyclo[4.1.0]hept-3-en-5-yl)-4,5-difluorophenyl)-3-(1,3-oxazol-4-ylmethoxy)-1,7-naphthyridin-8-amine]: the “% Aβ 40 reduction in rat brain at 10 mpk” value in test [1] is recorded as 23%. Moreover, the IC50 in test [2] was 859 µM; in test [3], 0.0127 µM; in test [4] it was 0.553 µM; in test [5] it was 0.0238 µM. For the same molecule, the “% Aβ 40 reduction in rat CSF at 10 mpk” value in test [6] was 31%.
As for `CN(C)C(=O)/C=C/[C@]12C[C@H]1[C@@](CF)(c1cc(Nc3nccc4cc(OCc5ncco5)cnc34)ccc1F)N=C(N)S2` [Example 770, (2E)-3-((1R,5S,6S)-3-amino-5-(fluoromethyl)-5-(2-fluoro-5-((3-(1,3-oxazol-2-ylmethoxy)-1,7-naphthyridin-8-yl)amino)phenyl)-2-thia-4-azabicyclo[4.1.0]hept-3-en-1-yl)-N,N-dimethyl-2-propenamide], in test [1], the “% Aβ 40 reduction in rat brain at 10 mpk” value worked out at 6%. In addition, the IC50 worked out at 311 µM in test [2], 0.00281 µM in test [3], 0.143 µM in test [4] and 0.00294 µM in test [5]. Also, in test [6], the “% Aβ 40 reduction in rat CSF at 10 mpk” value stood at 22%.
`C#CCOc1cnc(C(=O)Nc2ccc(F)c([C@@]3(C)N=C(N)S[C@@]4(C(=O)NC5CC5)C[C@H]43)c2)cn1` [Example 795, (1S,5S,6S)-3-amino-N-cyclopropyl-5-(2-fluoro-5-(((5-(2-propyn-1-yloxy)-2-pyrazinyl)carbonyl)amino)phenyl)-5-methyl-2-thia-4-azabicyclo[4.1.0]hept-3-en-1-carboxamide]: the “% Aβ 40 reduction in rat brain at 10 mpk” value in test [1] was 70%. Moreover, the IC50 was determined as 16.6 µM in test [2], 0.000608 µM in test [3], 0.0104 µM in test [4] and 0.0003 µM in test [5]. Also, the “% Aβ 40 reduction in rat CSF at 10 mpk” value in test [6] is on record as 76%.
`C[C@]1(c2cc(Nc3ncnc4cc(C#N)cnc34)cc(F)c2F)N=C(N)S[C@@]2(CF)C[C@H]21` [Example 801, 4-((3-((1S,5S,6S)-3-amino-1-(fluoromethyl)-5-methyl-2-thia-4-azabicyclo[4.1.0]hept-3-en-5-yl)-4,5-difluorophenyl)amino)pyrido[3,2-d]pyrimidine-7-carbonitrile]: the “% Aβ 40 reduction in rat brain at 10 mpk” value in test [1] is on record as 68%. In addition, the IC50 in test [2] is 145 µM; in test [3], 0.0137 µM; in test [4] it was 0.0163 µM; in test [5], 0.00613 µM. In test [6], the “% Aβ 40 reduction in rat CSF at 10 mpk” value came to 74%.
With `C[C@]1(c2cc(Nc3nccc4nc(OCc5ncco5)cnc34)cc(F)c2F)N=C(N)S[C@@]2(CF)C[C@H]21` [Example 802, N-(3-((1S,5S,6S)-3-amino-1-(fluoromethyl)-5-methyl-2-thia-4-azabicyclo[4.1.0]hept-3-en-5-yl)-4,5-difluorophenyl)-2-(1,3-oxazol-2-ylmethoxy)pyrido[3,4-b]pyrazin-5-amine], in test [1], the “% Aβ 40 reduction in rat brain at 10 mpk” value was 50%. Besides, the IC50 in test [2] amounted to 310 µM; in test [3] it was 0.00497 µM; in test [4] it was 0.0334 µM; in test [5], 0.000992 µM. Besides, the “% Aβ 40 reduction in rat CSF at 10 mpk” value in test [6] was 59%.
Turning to `Cc1nc(OCc2ncco2)cnc1C(=O)Nc1cc(F)c(F)c([C@@]2(C)N=C(N)S[C@@]3(CF)C[C@H]32)c1` [Example 803, N-(3-((1S,5S,6S)-3-amino-1-(fluoromethyl)-5-methyl-2-thia-4-azabicyclo[4.1.0]hept-3-en-5-yl)-4,5-difluorophenyl)-3-methyl-5-(1,3-oxazol-2-ylmethoxy)-2-pyrazinecarboxamide], the “% Aβ 40 reduction in rat brain at 10 mpk” value in test [1] came to 45%. Also, the IC50 in test [2] stood at 1060 µM; in test [3], 0.00228 µM; in test [4], 0.0157 µM; in test [5], 0.000643 µM. In addition, the “% Aβ 40 reduction in rat CSF at 10 mpk” value in test [6] is on record as 59%.

The record behind these values is patent publication US20160046618A1, “Cyclopropyl Fused Thiazin-2-Amine Compounds as Beta-Secretase Inhibitors and Methods of Use” (AMGEN INC., priority 2014, published 2016).
